According to the NIST ThermoML archive (doi:10.1021/je060271a):
Values joined by “and” are separate entries in the source; they are usually repeats but may differ in a detail not shown here. Identical values can stand only once. ± gives the expanded uncertainty stated by the source.

Conditions: Liquid, Vibrating tube method

CCCCCCC(=O)OCC(COC(=O)CCCCCC)(COC(=O)CCCCCC)COC(=O)CCCCCC [pentaerythritol tetraheptanoate]
Conditions	mass density
343.15 K, 32525 kPa	962.8 ± 1.2 kg/m3
343.15 K, 32544 kPa	962.9 ± 1.2 kg/m3
343.15 K, 32576 kPa	962.8 ± 1.2 kg/m3
343.15 K, 32608 kPa	962.8 ± 1.2 kg/m3
343.15 K, 32640 kPa	962.9 ± 1.2 kg/m3
343.15 K, 32679 kPa	962.8 ± 1.6 kg/m3
343.15 K, 32711 kPa	963 ± 1.2 kg/m3
343.15 K, 32736 kPa	963 ± 1.2 kg/m3
343.15 K, 32750 kPa	963.1 ± 1.2 kg/m3
343.15 K, 32774 kPa	963.1 ± 1.2 kg/m3
343.15 K, 32782 kPa	963 ± 1.2 kg/m3
343.15 K, 32814 kPa	963.1 ± 1.2 kg/m3
343.15 K, 32815 kPa	963 ± 1.2 kg/m3
343.15 K, 32853 kPa	963.1 ± 1.2 kg/m3
343.15 K, 32854 kPa	962.9 ± 1.2 kg/m3
343.15 K, 32887 kPa	962.9 ± 1.2 kg/m3
343.15 K, 32900 kPa	963.1 ± 1.2 kg/m3
343.15 K, 32920 kPa	963.1 ± 1.2 kg/m3
343.15 K, 32940 kPa	963 ± 1.2 kg/m3
343.15 K, 32953 kPa	963.1 ± 1.2 kg/m3
343.15 K, 32980 kPa	963 ± 1.2 kg/m3
343.15 K, 32993 kPa	963.1 ± 1.2 kg/m3
343.15 K, 33027 kPa	963.1 ± 1.2 kg/m3
343.15 K, 33028 kPa	963.2 ± 1.2 kg/m3
343.15 K, 33060 kPa	963.1 ± 1.2 kg/m3
343.15 K, 33068 kPa	963.1 ± 1.2 kg/m3
343.15 K, 33100 kPa	963.1 ± 1.2 kg/m3
343.15 K, 33109 kPa	963.1 ± 1.2 kg/m3
343.15 K, 33134 kPa	963.3 ± 1.2 kg/m3
343.15 K, 33174 kPa	963.3 ± 1.2 kg/m3
343.15 K, 33208 kPa	963.4 ± 1.2 kg/m3
343.15 K, 33242 kPa	963.2 ± 1.2 kg/m3
343.15 K, 33276 kPa	963.3 ± 1.2 kg/m3
343.15 K, 33317 kPa	963.3 ± 1.2 kg/m3
343.15 K, 33351 kPa	963.3 ± 1.2 kg/m3
343.15 K, 33385 kPa	963.4 ± 1.2 kg/m3
343.15 K, 33425 kPa	963.3 ± 1.2 kg/m3
343.15 K, 33459 kPa	963.4 ± 1.2 kg/m3
343.15 K, 33500 kPa	963.3 ± 1.2 kg/m3
343.15 K, 33535 kPa	963.4 ± 1.2 kg/m3
343.15 K, 33569 kPa	963.4 ± 1.2 kg/m3
343.15 K, 33604 kPa	963.4 ± 1.2 kg/m3
343.15 K, 33645 kPa	963.5 ± 1.2 kg/m3
343.15 K, 33679 kPa	963.4 ± 1.2 kg/m3
343.15 K, 33714 kPa	963.4 ± 1.2 kg/m3
343.15 K, 33721 kPa	963.6 ± 1.2 kg/m3
343.15 K, 33756 kPa	963.6 ± 1.2 kg/m3
343.15 K, 33772 kPa	963.8 ± 1.2 kg/m3
343.15 K, 33791 kPa	963.6 ± 1.2 kg/m3
343.15 K, 33816 kPa	963.7 ± 1.2 kg/m3
343.15 K, 33833 kPa	963.5 ± 1.2 kg/m3
343.15 K, 33862 kPa	963.6 ± 1.2 kg/m3
343.15 K, 33869 kPa	963.6 ± 1.2 kg/m3
343.15 K, 33906 kPa	963.5 ± 1.2 kg/m3
343.15 K, 33942 kPa	963.6 ± 1.2 kg/m3
343.15 K, 33949 kPa	963.7 ± 1.2 kg/m3
343.15 K, 33986 kPa	963.7 ± 1.2 kg/m3
343.15 K, 34002 kPa	963.7 ± 1.2 kg/m3
343.15 K, 34024 kPa	963.7 ± 1.2 kg/m3
343.15 K, 34048 kPa	963.7 ± 1.2 kg/m3
343.15 K, 34062 kPa	963.7 ± 1.2 kg/m3
343.15 K, 34095 kPa	963.8 ± 1.2 kg/m3
343.15 K, 34108 kPa	963.8 ± 1.2 kg/m3
343.15 K, 34139 kPa	963.8 ± 1.2 kg/m3
343.15 K, 34152 kPa	963.8 ± 1.2 kg/m3
343.15 K, 34166 kPa	963.8 ± 1.2 kg/m3
343.15 K, 34187 kPa	963.8 ± 1.2 kg/m3
343.15 K, 34202 kPa	963.9 ± 1.2 kg/m3
343.15 K, 34208 kPa	964 ± 1.2 kg/m3
343.15 K, 34229 kPa	963.8 ± 1.2 kg/m3
343.15 K, 34254 kPa	963.7 ± 1.2 kg/m3
343.15 K, 34259 kPa	963.9 ± 1.2 kg/m3
343.15 K, 34276 kPa	963.7 ± 1.2 kg/m3
343.15 K, 34290 kPa	964 ± 1.2 kg/m3
343.15 K, 34314 kPa	964 ± 1.2 kg/m3
343.15 K, 34315 kPa	963.9 ± 1.2 kg/m3
343.15 K, 34342 kPa	964 ± 1.2 kg/m3
343.15 K, 34365 kPa	963.9 ± 1.2 kg/m3 and 964.1 ± 1.2 kg/m3
343.15 K, 34390 kPa	964 ± 1.2 kg/m3
343.15 K, 34409 kPa	963.8 ± 1.2 kg/m3
343.15 K, 34414 kPa	964.1 ± 1.2 kg/m3
343.15 K, 34444 kPa	964 ± 1.2 kg/m3
343.15 K, 34469 kPa	963.9 ± 1.2 kg/m3
343.15 K, 34483 kPa	964 ± 1.2 kg/m3
343.15 K, 34500 kPa	964 ± 1.2 kg/m3
343.15 K, 34527 kPa	964.1 ± 1.2 kg/m3
343.15 K, 34534 kPa	964.1 ± 1.2 kg/m3
343.15 K, 34556 kPa	964 ± 1.2 kg/m3
343.15 K, 34566 kPa	964.1 ± 1.2 kg/m3
343.15 K, 34584 kPa	964.1 ± 1.2 kg/m3
343.15 K, 34616 kPa	964.2 ± 1.2 kg/m3
343.15 K, 34624 kPa	964.2 ± 1.2 kg/m3
343.15 K, 34625 kPa	964.2 ± 1.2 kg/m3
343.15 K, 34651 kPa	964.1 ± 1.2 kg/m3
343.15 K, 34654 kPa	964.2 ± 1.2 kg/m3
343.15 K, 34656 kPa	964.2 ± 1.2 kg/m3
343.15 K, 34659 kPa	964.1 ± 1.2 kg/m3
343.16 K, 100.2 kPa	940.6 ± 1.1 kg/m3
343.16 K, 100.5 kPa	940.7 ± 1.1 kg/m3 and 940.6 ± 1.1 kg/m3
343.16 K, 100.7 kPa	940.6 ± 1.1 kg/m3 and 940.7 ± 1.1 kg/m3
343.16 K, 101 kPa	940.7 ± 1.1 kg/m3
343.16 K, 101.7 kPa	940.6 ± 1.1 kg/m3
343.16 K, 103.8 kPa	940.6 ± 1.1 kg/m3
343.16 K, 104.7 kPa	940.6 ± 1.1 kg/m3
343.16 K, 160.8 kPa	940.8 ± 1.1 kg/m3
343.16 K, 221.5 kPa	940.6 ± 1.1 kg/m3
343.16 K, 300.9 kPa	940.7 ± 1.1 kg/m3
343.16 K, 1395.6 kPa	941.7 ± 1.1 kg/m3
343.16 K, 1419.9 kPa	941.7 ± 1.1 kg/m3
343.16 K, 4555 kPa	944.1 ± 1.2 kg/m3
343.16 K, 5039.3 kPa	944.4 ± 1.2 kg/m3
343.16 K, 13687 kPa	950.5 ± 1.2 kg/m3
